Data as given in PubChem BioAssay (NCI).
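Protocol summary: plate cells (96-well), add compound at 5 concentrations, incubate 48 h, interpolate endpoints linearly. At the TGI there is no net growth.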

How the values were obtained:
Experiment in all cases: inhibition of tumour cell growth, NCI panel, 48 h
[1] = tested on: UACC-257 melanoma
[2] = tested on: OVCAR-3 ovarian
[3] = tested on: M14 melanoma
[4] = tested on: HCT-15 colon
[5] = tested on: SF-539 CNS
[6] = tested on: HL-60(TB) leukemia
[7] = tested on: 786-0 renal
[8] = tested on: SW-620 colon
[9] = tested on: LXFL 529 NSCLC
[10] = tested on: M19-MEL melanoma
[11] = tested on: HOP-92 NSCLC
[12] = tested on: HT29 colon
[13] = tested on: UACC-62 melanoma
[14] = tested on: DMS 114 small cell lung
[15] = tested on: OVCAR-8 ovarian
[16] = tested on: KM12 colon
[17] = tested on: SK-MEL-2 melanoma
[18] = tested on: DLD-1 colon
[19] = tested on: EKVX NSCLC
[20] = tested on: SK-OV-3 ovarian
[21] = tested on: OVCAR-5 ovarian
[22] = tested on: SK-MEL-28 melanoma
[23] = tested on: UO-31 renal
[24] = tested on: NCI-H23 lung
[25] = tested on: K-562 leukemia
[26] = tested on: SF-268 CNS
[27] = tested on: KM20L2 colon
[28] = tested on: CCRF-CEM leukemia
[29] = tested on: NCI-H226 lung
[30] = tested on: ACHN renal
[31] = tested on: HCC-2998 colon
[32] = tested on: SNB-75 CNS
[33] = tested on: U251 CNS
[34] = tested on: RPMI-8226 leukemia
[35] = tested on: SF-295 CNS
[36] = tested on: A549 NSCLC
[37] = tested on: NCI-H460 lung
[38] = tested on: SN12C renal
[39] = tested on: SNB-19 CNS
[40] = tested on: NCI-H522 lung
[41] = tested on: SK-MEL-5 melanoma
[42] = tested on: SR leukemia
[43] = tested on: RXF 393 renal
[44] = tested on: HCT-116 colon
[45] = tested on: MALME-3M melanoma
[46] = tested on: DMS 273 small cell lung
[47] = tested on: HOP-18 NSCLC
[48] = tested on: RXF-631 renal
[49] = tested on: IGROV1 ovarian
[50] = tested on: HOP-62 NSCLC
[51] = tested on: SNB-78 CNS
[52] = tested on: OVCAR-4 ovarian
[53] = tested on: MOLT-4 leukemia
[54] = tested on: COLO 205 colon

Measured: TGI

O=C1c2ccccc2C(=O)N1CCn1nc(-c2ccccc2)cc(-c2ccccc2)c1=O
69.8 µM: [42]
> 100 µM: [1] | [2] | [3] | [4] | [5] | [7] | [8] | [9] | [10] | [12] | [13] | [14] | [15] | [16] | [17] | [18] | [19] | [20] | [21] | [22] | [23] | [24] | [25] | [26] | [27] | [28] | [29] | [30] | [31] | [32] | [33] | [35] | [36] | [37] | [38] | [39] | [40] | [41] | [43] | [44] | [45] | [46] | [47] | [48] | [49] | [50] | [51] | [52] | [53] | [54]
96.8 µM: [11]
36.9 µM: [34]
39 µM: [6]
